In US20060166316A1, “Phosphodiesterase 10a7 isoforms and methods of use” (Memory Pharmaceuticals Corporation, priority 2003, published 2006):

Tests used:
[1] = biological target: T1, mmPDE10A7 (Mus musculus, UniProt Q8CA95, M75I); assay: Km determination with [3H]-cAMP/cAMP or [3H]-cGMP/cGMP; format: biochemical; details: substrate of mmPDE10A7; 30 minutes at room temperature, pH 8.0
T1 construct: Full-length mmPDE10A7 cDNA cloned in the pENTR vector was recombined to pDEST™8; made in house; host or cells: Sf9 insect cells (baculovirus, pDEST8 / DH10BAC); used as crude cell lysate supernatant, dialysed for IMAP
T1 sequence (Q8CA95 with tags, fused parts or gaps M75I): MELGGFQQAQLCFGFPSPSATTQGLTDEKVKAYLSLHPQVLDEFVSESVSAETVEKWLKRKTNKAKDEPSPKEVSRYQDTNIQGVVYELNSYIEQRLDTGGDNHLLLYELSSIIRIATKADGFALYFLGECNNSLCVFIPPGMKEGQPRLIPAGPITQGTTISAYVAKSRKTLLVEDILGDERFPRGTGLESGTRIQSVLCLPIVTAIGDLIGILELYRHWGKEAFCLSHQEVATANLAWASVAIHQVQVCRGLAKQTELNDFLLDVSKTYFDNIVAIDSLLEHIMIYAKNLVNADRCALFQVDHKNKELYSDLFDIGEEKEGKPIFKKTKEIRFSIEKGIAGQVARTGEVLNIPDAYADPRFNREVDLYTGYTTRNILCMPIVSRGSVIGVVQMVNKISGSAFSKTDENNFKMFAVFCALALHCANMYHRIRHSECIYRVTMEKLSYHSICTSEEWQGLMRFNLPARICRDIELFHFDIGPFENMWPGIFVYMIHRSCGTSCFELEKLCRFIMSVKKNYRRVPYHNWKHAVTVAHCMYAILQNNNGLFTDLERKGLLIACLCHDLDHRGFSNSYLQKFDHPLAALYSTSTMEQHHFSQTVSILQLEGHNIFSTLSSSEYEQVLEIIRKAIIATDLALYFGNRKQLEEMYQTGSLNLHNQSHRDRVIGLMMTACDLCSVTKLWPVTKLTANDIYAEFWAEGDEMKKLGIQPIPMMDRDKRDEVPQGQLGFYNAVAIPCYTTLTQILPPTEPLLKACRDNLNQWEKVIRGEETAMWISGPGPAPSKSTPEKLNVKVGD
From the text: (§1) Full-length mmPDE10A7 cDNA cloned in the pENTR vector was recombined to pDEST™8 by clonase in DH5α competent bacteria (Invitrogen). DH10BAC, the competent bacteria containing baculovirus genome, was then transformed with the pDEST™8-mmPDE10A7. The white colonies were selected in the presence of gentamicin, kanamycin, tetracycline, Bluogal and IPTG and were confirmed by PCR. Log-phase sf9 cells were then transfected with recombinant baculovirus DNA by the method of Cellfectin in a 6-well plate. Forty-eight to seventy-two hours after the transfection, 0.5 ml medium from the transfected cell plate was added into a 175-cm^2 flask containing 2×10^7 sf9 cells for further amplification of the recombinant baculovirus. The sf9 cells were collected 48 hours after infection.
(§2) To prepare the cell lysate, the sf9 cells expressing mmPDE10A7 were resuspended in cell lysis buffer containing Tris/HCl (pH 7.5) 50 mM, NaCl 10 mM, EGTA 5 mM, EDTA (pH 8.0) 1 mM, DTT 1 mM, Protease Inhibitor Cocktail (Roche) 1 tablet per 50 ml buffer. The cell suspension was then homogenized with a Polytron (PT2100) at speed 20 for 20 seconds on ice and centrifuged at 10,000×g for 20 minutes. The supernatant was then collected and stored at −80° C.

[2] = biological target: T1, mmPDE10A7; assay: IMAP fluorescence polarization compound inhibition assay; format: biochemical; details: recombinant mmPDE10A7 in sf9 cell lysate
From the text: as §1, §2
Then, the cassette was placed in 1 liter of fresh assay buffer and continued to dialyze for 2 more hours at 4° C. After the second dialysis, the cell lysate was recovered with a clean syringe and stored at −80° C.
An IMAP Assay kit (Molecular Device) was used to assess enzyme properties of mmPDE10A7. […] Both the enzyme and the substrates were diluted in the following assay buffer: Tris/HCl (pH 8.0) 50 mM, MgCl2 5 mM, 2-mercaptoethanol 4 mM, BSA 0.33 mg/ml. After incubation, the reaction was stopped by adding 20 μl of diluted (400-fold) binding reagents and was incubated for an hour at room temperature. Then, the plates were counted in Analyst GT (Molecular Device) for fluorescence polarization. The data were analyzed with SoftMax Pro. The high end (EC80 to EC100) of the linear range was served as the working enzyme concentration for compound inhibition assays.
Then, the reaction was stopped by adding 20 μl of diluted binding reagents and counted in Analyst GT for fluorescence polarization.

[3] = fluorescein labeled cAMP substrate
[4] = fluorescein labeled cGMP substrate

Km [1]	IC50 [2, 3]	IC50 [2, 4]	SMILES	IC50 ([2]; IC50, fluorescein labeled cAMP substrate)	IC50 ([2]; IC50, fluorescein labeled cGMP substrate)
3.7 µM			Nc1nc2c(ncn2[C@@H]2O[C@@H]3COP(=O)(O)O[C@H]3[C@H]2O)c(=O)[nH]1 [cGMP, cyclic guanosine 5′ monophosphate]		
	No inhibition	No inhibition	Cc1[nH]c(=O)c(C#N)cc1-c1ccncc1 [milrinone]		
			COc1ccc(Cc2nccc3cc(OC)c(OC)cc23)cc1OC [papaverine]	44 nM	22 nM
	No inhibition	No inhibition	CCOC(=O)C1=C[C@]2(CC)CCCN3CCc4c(n1c1ccccc41)[C@@H]32 [vinpocetine]		
